Reference: BindingDB's records for doi:10.1016/j.bmc.2016.08.054 (National Institute of Public Health-National Institute of …, 2016)
pIC50: −log10 of the molar value.

Molecular target: Aminopeptidase N (Sus scrofa) (UniProt P15145)
Test: Inhibition of porcine kidney microsomal LAP using l-leucine-7-amido-4-methylcoumarin as substrate incubated for 10 hrs measured every 6 mins by fluorescence assay

Aminopeptidase N (Sus scrofa), sequence (P15145 whole entry, looked up): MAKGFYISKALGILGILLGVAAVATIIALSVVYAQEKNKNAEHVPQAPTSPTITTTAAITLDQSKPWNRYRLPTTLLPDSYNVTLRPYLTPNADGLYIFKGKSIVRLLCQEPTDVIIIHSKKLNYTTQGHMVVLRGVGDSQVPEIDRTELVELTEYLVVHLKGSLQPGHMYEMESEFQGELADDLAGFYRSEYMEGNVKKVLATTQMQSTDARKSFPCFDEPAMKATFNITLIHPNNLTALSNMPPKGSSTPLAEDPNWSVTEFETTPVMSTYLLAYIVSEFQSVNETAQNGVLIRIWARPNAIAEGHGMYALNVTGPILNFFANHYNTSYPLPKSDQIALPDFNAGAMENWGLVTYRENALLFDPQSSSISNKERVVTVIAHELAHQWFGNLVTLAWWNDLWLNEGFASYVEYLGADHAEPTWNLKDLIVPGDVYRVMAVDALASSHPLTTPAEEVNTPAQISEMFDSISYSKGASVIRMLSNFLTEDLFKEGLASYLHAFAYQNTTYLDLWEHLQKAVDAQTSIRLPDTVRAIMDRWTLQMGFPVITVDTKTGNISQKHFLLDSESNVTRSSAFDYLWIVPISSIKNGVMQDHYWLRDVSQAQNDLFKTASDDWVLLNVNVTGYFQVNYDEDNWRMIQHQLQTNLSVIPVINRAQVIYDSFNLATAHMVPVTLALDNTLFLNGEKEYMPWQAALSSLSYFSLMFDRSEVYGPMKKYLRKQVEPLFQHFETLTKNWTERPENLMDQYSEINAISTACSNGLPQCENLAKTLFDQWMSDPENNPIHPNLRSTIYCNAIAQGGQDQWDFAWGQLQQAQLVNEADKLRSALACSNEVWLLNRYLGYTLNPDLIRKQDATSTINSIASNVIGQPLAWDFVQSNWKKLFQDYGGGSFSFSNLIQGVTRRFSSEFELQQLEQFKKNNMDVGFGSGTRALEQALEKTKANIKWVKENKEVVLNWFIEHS

pIC50 | Structure (SMILES)
4.47 | CCOC(=O)C1(C(=O)OCC)Cc2cc(OCc3ccccc3)cc(OCc3ccccc3)c2C=N1

Molecular target: Aminopeptidase N (Sus scrofa) (UniProt P15145)
Test: Inhibition of porcine kidney microsomal LAP using l-leucine-7-amido-4-methylcoumarin as substrate incubated for 60 mins measured every 3 mins by fluorescence assay

Structure (SMILES) | pIC50
O=C(O)C1Cc2cc(O)c(I)cc2C=N1 (configuration not stated) | 4.16
CCOC(=O)C1(C(=O)OCC)Cc2cc(OCc3ccccc3)cc(OCc3ccccc3)c2C=N1 | 4.78
O=C(O)C1CCc2cc(O)c(O)cc2C=N1 (configuration not stated) | 3.79
COc1cc2c(cc1OC)CCC(C(=O)OCc1ccccc1)(C(=O)OCc1ccccc1)N=C2 | 2.98
O=C(O)C1Cc2cc(O)c(O)cc2C=N1 (configuration not stated) | 3.95

Further lines, results first:

pIC50 | Structure (SMILES)
3.42 | O=C(O)C1Cc2cc(O)cc(O)c2C=N1 (configuration not stated)
4.20 | O=C(O)C1Cc2cc(O)c(O)c(I)c2C=N1 (configuration not stated)
3.11 | O=C(O)C1Cc2cc(O)c(O)c(O)c2C=N1 (configuration not stated)
3.39 | O=C(O)C1Cc2c(O)c(O)cc(Br)c2C=N1 (configuration not stated)
4.17 | O=C(O)C1Cc2cc(O)c(O)c(Br)c2C=N1 (configuration not stated)
4.11 | O=C(O)C1Cc2cc(O)c(Br)c(O)c2C=N1 (configuration not stated)
